Reference: the supplement of paper PMC7214452
Counter-ions that a name gives are not always drawn.

Legend:
Assay in all cases: normalized area under the dose-response curve (viability relative to DMSO control) (fraction); higher = less sensitive (more viable cells)
Conditions in all cases: exposure time not given
[1] = test system: SU-DHL2 (cancer type: DLBCL)
Method: (§1)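 25 myeloma and 15 non-Hodgkin lymphoma cell lines were exposed to each of 76 drugs as 7-point log dilutions (0.01 nM–10 µM) in duplicate. Viability was read with CellTiter-Glo and normalised to DMSO (0.1%) and staurosporine (10 µM) plate controls. Normalised AUC was calculated by the trapezoidal method relative to the negative control.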

MM1.R (cancer type: MM) = test system: MM1.R (cancer type: MM)
Method: as §1

[2] = test system: JeKo-1 (cancer type: Mantle)
Method: as §1

[3] = test system: OCI-LY19 (cancer type: DLBCL)
Method: as §1

[4] = test system: OCI-LY1 (cancer type: DLBCL)
Method: as §1

[5] = test system: RPMI 8226 (cancer type: MM)
Method: as §1

KMS34 (cancer type: MM) = test system: KMS34 (cancer type: MM)
Method: as §1

[6] = test system: Mino (cancer type: Mantle)
Method: as §1

[7] = test system: OCI-MY5/CRBN (cancer type: MM)
Method: as §1

[8] = test system: NCI-H929 (cancer type: MM)
Method: as §1

Se-Ax (cancer type: TCL) = test system: Se-Ax (cancer type: TCL)
Method: as §1

[9] = test system: KMS28BM (cancer type: MM)
Method: as §1

[10] = test system: KMS28PE (cancer type: MM)
Method: as §1

SKMM2 (cancer type: MM) = test system: SKMM2 (cancer type: MM)
Method: as §1

[11] = test system: OCI-MY5 (cancer type: MM)
Method: as §1

[12] = test system: Granta-519 (cancer type: Mantle)
Method: as §1

[13] = test system: SU-DHL1 (cancer type: TCL)
Method: as §1

LP1 (cancer type: MM) = test system: LP1 (cancer type: MM)
Method: as §1

[14] = test system: KMS12PE (cancer type: MM)
Method: as §1

My-La (cancer type: TCL) = test system: My-La (cancer type: TCL)
Method: as §1

KMS18 (cancer type: MM) = test system: KMS18 (cancer type: MM)
Method: as §1

U266 (cancer type: MM) = test system: U266 (cancer type: MM)
Method: as §1

[15] = test system: JVM2 (cancer type: Mantle)
Method: as §1

KMS11 (cancer type: MM) = test system: KMS11 (cancer type: MM)
Method: as §1

OPM2 (cancer type: MM) = test system: OPM2 (cancer type: MM)
Method: as §1

AMO1 (cancer type: MM) = test system: AMO1 (cancer type: MM)
Method: as §1

[16] = test system: Karpas-299 (cancer type: TCL)
Method: as §1

KMS26 (cancer type: MM) = test system: KMS26 (cancer type: MM)
Method: as §1

[17] = test system: OCI-LY3 (cancer type: DLBCL)
Method: as §1

[18] = test system: OCI-MY5/Vec (cancer type: MM)
Method: as §1

XG2 (cancer type: MM) = test system: XG2 (cancer type: MM)
Method: as §1

EJM (cancer type: MM) = test system: EJM (cancer type: MM)
Method: as §1

FR4 (cancer type: MM) = test system: FR4 (cancer type: MM)
Method: as §1

L363 (cancer type: MM) = test system: L363 (cancer type: MM)
Method: as §1

[19] = test system: OCI-MY7 (cancer type: MM)
Method: as §1

MM1.S (cancer type: MM) = test system: MM1.S (cancer type: MM)
Method: as §1

JJN3 (cancer type: MM) = test system: JJN3 (cancer type: MM)
Method: as §1

[20] = test system: HuT 78 (cancer type: TCL)
Method: as §1

[21] = test system: SU-DHL6 (cancer type: DLBCL)
Method: as §1

[22] = test system: SR-786 (cancer type: TCL)
Method: as §1

Structure (SMILES): Nc1cccc2c1CN(C1CCC(=O)NC1=O)C2=O (stereo not given) [Lenalidomide]
- normalized area under the dose-response curve [1]: 0.785
- normalized area under the dose-response curve (MM1.R (cancer type: MM)): 0.68
- normalized area under the dose-response curve [2]: 0.874
- normalized area under the dose-response curve [3]: 0.758
- normalized area under the dose-response curve [4]: 0.825
- normalized area under the dose-response curve [5]: 0.915
- normalized area under the dose-response curve (KMS34 (cancer type: MM)): 0.662
- normalized area under the dose-response curve [6]: 0.897
- normalized area under the dose-response curve [7]: 0.928
- normalized area under the dose-response curve [8]: 0.74
- normalized area under the dose-response curve (Se-Ax (cancer type: TCL)): 0.709
- normalized area under the dose-response curve [9]: 0.819
- normalized area under the dose-response curve [10]: 0.899
- normalized area under the dose-response curve (SKMM2 (cancer type: MM)): 0.874
- normalized area under the dose-response curve [11]: 0.786
- normalized area under the dose-response curve [12]: 0.891
- normalized area under the dose-response curve [13]: 0.812
- normalized area under the dose-response curve (LP1 (cancer type: MM)): 0.847
- normalized area under the dose-response curve [14]: 0.74
- normalized area under the dose-response curve (My-La (cancer type: TCL)): 0.944
- normalized area under the dose-response curve (KMS18 (cancer type: MM)): 0.805
- normalized area under the dose-response curve (U266 (cancer type: MM)): 0.858
- normalized area under the dose-response curve [15]: 0.657
- normalized area under the dose-response curve (KMS11 (cancer type: MM)): 0.758
- normalized area under the dose-response curve (OPM2 (cancer type: MM)): 0.846
- normalized area under the dose-response curve (AMO1 (cancer type: MM)): 0.799
- normalized area under the dose-response curve [16]: 0.875
- normalized area under the dose-response curve (KMS26 (cancer type: MM)): 0.785
- normalized area under the dose-response curve [17]: 0.802
- normalized area under the dose-response curve [18]: 0.999
- normalized area under the dose-response curve (XG2 (cancer type: MM)): 0.861
- normalized area under the dose-response curve (EJM (cancer type: MM)): 0.836
- normalized area under the dose-response curve (FR4 (cancer type: MM)): 0.852
- normalized area under the dose-response curve (L363 (cancer type: MM)): 0.785
- normalized area under the dose-response curve [19]: 0.78
- normalized area under the dose-response curve (MM1.S (cancer type: MM)): 0.66
- normalized area under the dose-response curve (JJN3 (cancer type: MM)): 0.822
- normalized area under the dose-response curve [20]: 0.828
- normalized area under the dose-response curve [21]: 0.847
- normalized area under the dose-response curve [22]: 0.992

Structure (SMILES): COc1cc2nccc(Oc3ccc(NC(=O)NC4CC4)c(Cl)c3)c2cc1C(N)=O [Lenvatinib]
- normalized area under the dose-response curve [1]: 0.937
- normalized area under the dose-response curve (MM1.R (cancer type: MM)): 0.85
- normalized area under the dose-response curve [2]: 0.938
- normalized area under the dose-response curve [3]: 0.87
- normalized area under the dose-response curve [4]: 0.936
- normalized area under the dose-response curve [5]: 0.918
- normalized area under the dose-response curve (KMS34 (cancer type: MM)): 0.912
- normalized area under the dose-response curve [6]: 0.97
- normalized area under the dose-response curve [7]: 0.944
- normalized area under the dose-response curve [8]: 0.92
- normalized area under the dose-response curve (Se-Ax (cancer type: TCL)): 0.883
- normalized area under the dose-response curve [9]: 0.877
- normalized area under the dose-response curve [10]: 0.877
- normalized area under the dose-response curve (SKMM2 (cancer type: MM)): 0.943
- normalized area under the dose-response curve [11]: 0.84
- normalized area under the dose-response curve [12]: 0.948
- normalized area under the dose-response curve [13]: 0.909
- normalized area under the dose-response curve (LP1 (cancer type: MM)): 0.863
- normalized area under the dose-response curve [14]: 0.94
- normalized area under the dose-response curve (My-La (cancer type: TCL)): 0.94
- normalized area under the dose-response curve (KMS18 (cancer type: MM)): 0.977
- normalized area under the dose-response curve (U266 (cancer type: MM)): 0.992
- normalized area under the dose-response curve [15]: 0.723
- normalized area under the dose-response curve (KMS11 (cancer type: MM)): 0.814
- normalized area under the dose-response curve (OPM2 (cancer type: MM)): 0.892
- normalized area under the dose-response curve (AMO1 (cancer type: MM)): 0.963
- normalized area under the dose-response curve [16]: 0.885
- normalized area under the dose-response curve (KMS26 (cancer type: MM)): 0.884
- normalized area under the dose-response curve [17]: 0.931
- normalized area under the dose-response curve [18]: 0.949
- normalized area under the dose-response curve (XG2 (cancer type: MM)): 0.905
- normalized area under the dose-response curve (EJM (cancer type: MM)): 0.97
- normalized area under the dose-response curve (FR4 (cancer type: MM)): 1.02
- normalized area under the dose-response curve (L363 (cancer type: MM)): 0.88
- normalized area under the dose-response curve [19]: 0.92
- normalized area under the dose-response curve (MM1.S (cancer type: MM)): 0.88
- normalized area under the dose-response curve (JJN3 (cancer type: MM)): 0.897
- normalized area under the dose-response curve [20]: 0.866
- normalized area under the dose-response curve [21]: 0.964
- normalized area under the dose-response curve [22]: 0.953

Structure (SMILES): Cc1ccc(F)c(NC(=O)Nc2ccc(-c3cccc4[nH]nc(N)c34)cc2)c1 [Linifanib]
- normalized area under the dose-response curve [1]: 0.981
- normalized area under the dose-response curve (MM1.R (cancer type: MM)): 0.58
- normalized area under the dose-response curve [2]: 0.759
- normalized area under the dose-response curve [3]: 0.987
- normalized area under the dose-response curve [4]: 0.995
- normalized area under the dose-response curve [5]: 0.165
- normalized area under the dose-response curve (KMS34 (cancer type: MM)): 0.33
- normalized area under the dose-response curve [6]: 0.735
- normalized area under the dose-response curve [7]: 0.55
- normalized area under the dose-response curve [8]: 0.59
- normalized area under the dose-response curve (Se-Ax (cancer type: TCL)): 0.627
- normalized area under the dose-response curve [9]: 0.646
- normalized area under the dose-response curve [10]: 0.722
- normalized area under the dose-response curve (SKMM2 (cancer type: MM)): 0.667
- normalized area under the dose-response curve [11]: 0.468
- normalized area under the dose-response curve [12]: 0.861
- normalized area under the dose-response curve [13]: 0.519
- normalized area under the dose-response curve (LP1 (cancer type: MM)): 0.348
- normalized area under the dose-response curve [14]: 0.73
- normalized area under the dose-response curve (My-La (cancer type: TCL)): 0.852
- normalized area under the dose-response curve (KMS18 (cancer type: MM)): 0.56
- normalized area under the dose-response curve (U266 (cancer type: MM)): 0.549
- normalized area under the dose-response curve [15]: 0.25
- normalized area under the dose-response curve (KMS11 (cancer type: MM)): 0.65
- normalized area under the dose-response curve (OPM2 (cancer type: MM)): 0.587
- normalized area under the dose-response curve (AMO1 (cancer type: MM)): 0.567
- normalized area under the dose-response curve [16]: 0.651
- normalized area under the dose-response curve (KMS26 (cancer type: MM)): 0.709
- normalized area under the dose-response curve [17]: 0.983
- normalized area under the dose-response curve [18]: 0.57
- normalized area under the dose-response curve (XG2 (cancer type: MM)): 0.547
- normalized area under the dose-response curve (EJM (cancer type: MM)): 0.526
- normalized area under the dose-response curve (FR4 (cancer type: MM)): 0.441
- normalized area under the dose-response curve (L363 (cancer type: MM)): 0.605
- normalized area under the dose-response curve [19]: 0.5
- normalized area under the dose-response curve (MM1.S (cancer type: MM)): 0.55
- normalized area under the dose-response curve (JJN3 (cancer type: MM)): 0.603
- normalized area under the dose-response curve [20]: 0.63
- normalized area under the dose-response curve [21]: 0.955
- normalized area under the dose-response curve [22]: 0.721

Structure (SMILES): N[C@@H](Cc1ccc(N(CCCl)CCCl)cc1)C(=O)O [Melphalan hydrochloride]
- normalized area under the dose-response curve [1]: 0.936
- normalized area under the dose-response curve (MM1.R (cancer type: MM)): 0.8
- normalized area under the dose-response curve [2]: 0.788
- normalized area under the dose-response curve [3]: 1.01
- normalized area under the dose-response curve [4]: 0.94
- normalized area under the dose-response curve [5]: 0.897
- normalized area under the dose-response curve (KMS34 (cancer type: MM)): 0.573
- normalized area under the dose-response curve [6]: 0.818
- normalized area under the dose-response curve [7]: 0.926
- normalized area under the dose-response curve [8]: 0.77
- normalized area under the dose-response curve (Se-Ax (cancer type: TCL)): 0.778
- normalized area under the dose-response curve [9]: 0.95
- normalized area under the dose-response curve [10]: 0.758
- normalized area under the dose-response curve (SKMM2 (cancer type: MM)): 0.892
- normalized area under the dose-response curve [11]: 0.643
- normalized area under the dose-response curve [12]: 0.798
- normalized area under the dose-response curve [13]: 0.41
- normalized area under the dose-response curve (LP1 (cancer type: MM)): 0.85
- normalized area under the dose-response curve [14]: 0.86
- normalized area under the dose-response curve (My-La (cancer type: TCL)): 0.892
- normalized area under the dose-response curve (KMS18 (cancer type: MM)): 0.842
- normalized area under the dose-response curve (U266 (cancer type: MM)): 0.885
- normalized area under the dose-response curve [15]: 0.742
- normalized area under the dose-response curve (KMS11 (cancer type: MM)): 0.826
- normalized area under the dose-response curve (OPM2 (cancer type: MM)): 0.896
- normalized area under the dose-response curve (AMO1 (cancer type: MM)): 0.722
- normalized area under the dose-response curve [16]: 0.907
- normalized area under the dose-response curve (KMS26 (cancer type: MM)): 0.791
- normalized area under the dose-response curve [17]: 0.858
- normalized area under the dose-response curve [18]: 0.936
- normalized area under the dose-response curve (XG2 (cancer type: MM)): 0.776
- normalized area under the dose-response curve (EJM (cancer type: MM)): 0.685
- normalized area under the dose-response curve (FR4 (cancer type: MM)): 0.919
- normalized area under the dose-response curve (L363 (cancer type: MM)): 0.73
- normalized area under the dose-response curve [19]: 0.73
- normalized area under the dose-response curve (MM1.S (cancer type: MM)): 0.79
- normalized area under the dose-response curve (JJN3 (cancer type: MM)): 0.874
- normalized area under the dose-response curve [20]: 0.787
- normalized area under the dose-response curve [21]: 0.905
- normalized area under the dose-response curve [22]: 0.973
